# Like-named read-outs stand apart in the source and are kept apart here.
# Columns and labels:
# [1] = tested on: S. enterica Typhimurium LT2; experiment: AgSol-antibiotic synergy screening assay; type: cell-based, Salmonella enterica; settings: Salmonella; FIGS. 2A-2F
# Description: (§1) Antibiotic stock solutions were serially diluted in 2-fold steps in pre-warmed (37° C.) nutrient broth (NB) to prepare an antibiotic concentration gradient above and below the minimal inhibitory concentration (MIC) of antibiotic (Table 4). 50 μl of prepared dilutions were aliquoted into a 96-well round bottom plate (Nunc, Thermo Fisher) for the screening assay.
# (§2) Silver formulation (AgSol1000 (particles with 19 Ag per silica particle), AgSol300 (particles with 6 Ag per silica particle, AgNO3), aluminum coated silica beads (159/500 (silica particles with aluminium silicate coating)) and uncoated silica beads (15/500) were diluted in pre-warmed (37° C.) NB. Bindzil®15/500 is an unmodified silica sol, whereas Bindzil®159/500 is a aluminosilicate modified silica sol. Bindzil® is sold by Akzo Nobel AB.
# (§3) 40 μl of the prepared dilutions were added to the 96-well plate containing antibiotic gradient to reach the final silver concentration of ¼×MICAgSol (silver) (specific for the microorganism used) (Table 5).
# (§4) The prepared plate was incubated in 37° C. incubator without shaking in the dark for 16-20 h and the optical density (OD620) of each well was measured in plate reader Multiscan FC (Thermo Fisher).
# [2] = tested on: E. coli K-12 MG1655 (DA4201); experiment: AgSol-antibiotic synergy screening assay / MIC (Ag/Antibiotic screen); type: cell-based, Escherichia coli; settings: for MIC: Escherichia coli, MG1655, antibiotic alone
# Description: (§5) The MIC (Minimal Inhibitory Concentration) of a bacterium to a certain antimicrobial agent gives a quantitative estimate of the susceptibility. MIC is defined as the lowest concentration of antimicrobial agent required to inhibit growth of the organism. The principle is simple: Agar plates, tubes or microtitre trays with two-fold dilutions of antibiotics are inoculated with a standardized inoculum of the bacteria and incubated under standardized conditions following NCCLS guidelines. The next day, the MIC is recorded as the lowest concentration of antimicrobial agent with no visible growth. The MIC informs you about the degree of resistance and might give you important information about the resistance mechanism and the resistance genes involved. MIC-determination performed as agar dilution is regarded as the gold standard for susceptibility testing (Source: Global Salm-Surv—A global Salmonella surveillance and laboratory support project of the World Health Organization (4th Ed. April 2002, modified November 2010))
# (§6) The Minimum Inhibitory Concentration (MIC) of nanosilver (silver) was determined by two-fold dilution series in NaCl free Nutrient Broth (Sigma-Aldrich) in 15 ml screw cap tubes. The tubes were incubated in the dark over night at 37° C. without shaking. The MIC was determined as the lowest concentration of nanosilver (silver) at which no visible growth was observed.
# as §1, §2, §3
# (§7) Overnight (16-20 h) cultures of 3 biological replicates of the following microorganisms E. coli K-12 MG1655 (DA4201), E. coli K-12 MG1655 rpsL K42N (DA49828), Pseudomonas aeruginosa PAO1 (DA6215) or Staphylococcus aureus USA300 JE2 (DA28823) were grown in NB till saturation (37° C. incubator with 190 rpm shaking). Cultures were diluted in NB to 10^7 CFU/ml and 10 μl of the dilution were added to the 96-well plate containing antibiotic gradient and silver formulations or the bead controls to reach the final concentration of 10^5 CFU/well in 100 μl total volume per well. 3 technical replicates (3 wells) of specific antibiotic concentration in combination with silver and microorganism were used. A control plate containing bacterial cells mixed with only antibiotic gradient was always included too.
# as §4
# [3] = tested on: E. coli K-12 MG1655 rpsL K42N (DA49828); experiment: AgSol-antibiotic synergy screening assay / MIC; type: cell-based; settings: Escherichia coli
# Description: as §5, §6, §1, §2, §3, §7, §4
smiles,measurement,setting,value
[H]/N=C(/N)N[C@H]1[C@H](O)[C@@H](O)[C@H](O[C@@H]2O[C@@H](C)[C@](O)(C=O)[C@H]2O[C@@H]2O[C@@H](CO)[C@H](O)[C@@H](O)[C@@H]2NC)[C@@H](N/C(N)=N\[H])[C@@H]1O [Streptomycin],synergetic effect of antibiotic in combination with silver,[1],stronger synergetic effect
same,MIC,"[2]; E. coli (DA4201), values used for antibiotic gradient, read-out: MIC",0.5 µg/mL
same,MIC,"[2]; nutrient broth, read-out: Antibiotic MIC, NB",0.5 µg/mL
same,fold increase in effect with AgSol vs antibiotic alone,"[2]; Table 6, E. coli",17 fold
same,"Antibiotic MIC, NB + AgSol1000","[2]; antibiotic in combination with AgSol1000 at ¼ × MIC silver, nutrient broth",0.03 µg/mL
same,"Fold change (antibiotic MIC, NB vs NB + AgSol1000)",[2]; dash = MIC unchanged,17x
same,synergistic antibacterial effect of antibiotic in combination with AgSol,"[2]; vs antibiotic alone, E. coli MG 1655 K-12",markedly improved synergistic effect
same,MIC,[3],2000 µg/mL

# Source: patent US20210196738A1, “PHARMACEUTICAL COMPOSITION COMPRISING A COLLOIDAL DISPERSION AND A THERAPEUTIC AGENT AND METHODS AND USES THEREOF” (priority 2017, published 2021)
